Source: PMC5503984, “Characterisation of preproendothelin-1 derived peptides identifies Endothelin-Like Domain Peptide as a modulator of Endothelin-1” (Scientific Reports, 2017)
Where no end group is shown, it is not given here.

Assays:
[1] = test system: human aortic endothelial cells; test: Secretion of ET-1 and proET-1 peptides from cultured human aortic endothelial cells (sandwich ELISA); type: cell-based; conditions: 6 h incubation
Text: To confirm that proET-1 peptides are a reproducible index of ET-1 synthesis we compared the level of peptide production in cultured human aortic endothelial cells under conditions known to increase or decrease ET-1 expression. These experiments also confirmed that early passage human endothelial cells from primary cultures produce the same peptides with the stoichiometric relationship expected for proET-1 processing.
Figure 3 Correlation between secretion of ET-1 and proET-1 peptides from human aortic endothelial cells. Confluent cultures were incubated for 6 h in basal medium alone, or with 1 mM phosphoramidon (PHA), 2.5 or 5 µg/ml apple procyanidin pentamer (AP-2.5, AP-5), 5 µg/ml grape seed extract (GSE), 10 ng/ml TNFα or 1 ng/ml TGFß. All peptides were measured using specific sandwich ELISAs, and converted to % basal release (A,B,C,E and G). Results are mean ± SD from 4 experiments. Significant differences were determined by ANOVA with Bonferroni correction for multiple comparisons (*P = < 0.05; ***P = < 0.001). (D,F) and (H) show correlations between secretion of ET-1 and the respective proET-1 peptides under the different incubation conditions (excluding data obtained with phosporamidon).
Underlined sequences in Table 1 indicate peptide antigens used to raise specific antisera for sandwich immunoassays following previously described methodologies. Immunogens for ppET-1[93–109] and ppET-1[155–166] were prepared by conjugation via terminal Cys residues to maleimide groups on pre-treated carrier proteins. To enable conjugation of ppET-1[18–30], ppET-1[93–102] and ppET-1[169–186] by the maleimide methodology, synthetic peptides for these antigens included a C-terminal Cys-NH2 residue. Immunogens for ppET-1[42–50] and ppET-1[204–212] were prepared by glutaraldehyde conjugation to carrier protein[30]. For initial characterisation of conditioned media samples, rabbit antisera raised against ppET-1[42–50] and ppET-1[93–102] were used to establish radioimmunoassays for these peptide antigens. Subsequent investigations used sandwich ELISA methodologies with specific IgG purified from antisera using the respective peptide antigens (Table 1) coupled to SulfoLink Coupling Resin (Thermo Scientific/Pierce) or CNBr-Sepharose (GE Healthcare)[30]. Purified IgG for use as detection antibodies were biotinylated with NHS-LC-LC-biotin (Thermo Scientific/Pierce), and used for assay measurements with enhanced chemiluminescence.
EA.hy 926 and A549 cell lines were grown in Dulbecco’s modified Eagle medium with 10% fetal bovine serum at 37 °C in a humidified CO2 incubator (8% CO2, 92% air) as previously described, [30]. Human aortic endothelial cells were passaged cells from primary cultures grown in endothelial cell basal medium with growth supplement (Cell Applications Inc.), and used when confluent to compare secretion of proET-1 peptides with ET-1. Purified apple procyanidin pentamer was from Asahi Breweries (Moriya, Ibaraki 302–0106, Japan), grape seed extract was form Polyphenolics (Madera, CA), TNFα and TGFβ were from R&D Systems.

[2] = RP-HPLC elution position of synthetic proET-1 peptides; type: physicochemical; conditions: ACE-5 C4 300 Å, 5 µm, 4.6 × 250 mm, 1 ml/min, 0.1% TFA – 10% solvent B (80% CH3CN with 0.1% TFA) over 2 min, then 10–30% B over 50 min, 1 min fractions, absorbance at 280 nm and immunoassay
Protocol: Figure 2 Size exclusion chromatography of peptide precipitates from (A) EA.hy 926 and (B) A549 cell lines, (C) cation exchange chromatography of conditioned media from EA.hy 926, and HPLC characterisation of pro-ET-1 peptides from EA.hy 926 cells – (D) NT-proET-1, (E) ELDP and (F) CT-proET-1. (A) and (B) proendothelin-1 peptides from EA.hy 926 and A549 cell lines were subjected to size exclusion chromatography (column 1.6 × 100 cm, Sephadex G50 superfine) equilibrated at 4 °C with 0.1 M NaCl containing 0.01 M HCl. Fractions were subjected to immunoassay for ppET-1[42–50] (open circles) and ppET-1[93–102] (closed circles). Elution positions of adrenomedullin (ADM, M r 6029), big ET-1 (bET-1, M r 4283) and ET-1 (M r 2492) are indicated. […] ELDP (red columns) and CT-proET-1 (blue columns) were measured using immunoassays. […]
ProET-1 peptides were subjected to reverse phase HPLC on C4 silica (15 µm, 300 Å pore, 1 × 25 cm; Jupiter® Phenomenex) with gradient elution at 2 ml/min: 0.1% TFA – 15% solvent B (80% CH3CN with 0.1% TFA) over 2 min, followed by 15–60% B over 45 min. […] Synthetic peptides were used to characterise elution positions of NT-proET-1, ELDP and CT-proET-1 on this second HPLC system by monitoring absorbance at 280 nm and immunoassay of fractions. […]

[3] = Clearance of proET-1 peptides after i.v. bolus in anaesthetised rats; type: in vivo, rat; conditions: rat; for plasma level at 30 s as % of administered peptide, relative to estimates for dilution in circulating blood: 1 nmol/kg i.v., hypothetical maximum plasma concentration 23–35 pmol/ml; for level at time molar at 0.5 min: iv, anaesthetised male Wistar rats, bolus 1 nmol/kg i.v. of each peptide as a combined solution in 0.9% saline/0.1% BSA, arterial plasma, Luminex multiplex immunoassay, mean ± SD, read-out: plasma level 30 s after injection
Protocol: To examine whether circulating half-lives influenced plasma levels of proET-1 peptides clearance rates were investigated in anaesthetised rats. […] Based on a circulating blood volume of 7.2 ± 0.3 ml per 100 g body weight, a mean weight of 345 ± 6 g and hematocrit of 40–60%, the hypothetical maximum plasma concentrations were 23–35 pmol/ml. However, the levels of NT-proET-1, ELDP and CT-proET-1 30 s after injection were 0.29 ± 0.02, 3.65 ± 0.23, and 11.74 ± 0.64 pmol/ml, respectively. Relative to estimates for dilution in circulating blood, these values represent ≈1%, 10–16%, and 34–51% of administered peptide for NT-proET-1, ELDP and CT-proET-1. Moreover, NT-proET-1 was almost completely cleared from the circulation in <5 min (estimated initial t½ < 20 s).
Figure 5 Comparison of clearance rates of NT-proET-1, ELDP and CT-proET-1 in anaesthetised rats. A bolus dose containing 1 nmol/kg of each proET-1 peptide as a combined solution prepared in 0.9% saline/0.1% BSA was administered i.v. and heparinised arterial blood samples (0.5 ml) were collected at 0.5, 1, 2, 5, 10, 20 and 40 min after administration of proET-1 peptides. NT-proET-1 (mauve circles), ELDP (red circles) and CT-proET-1 (blue circles) were measured by magnetic bead-based multiplex assays using Luminex methodology (values are mean ± SD, except where SD is less than the symbol size).
A multiplexed immunoassay system was used for simultaneous measurement of NT-proET-1, ELDP and CT-proET-1 in small volumes of rat plasma. Capture antibodies were conjugated to magnetic beads (region 45 – NT-proET-1, region 36 – ELDP, and region 27 – CT-proET-1) following standard protocols (Luminex Corporation). For assay capture antibody-coated magnetic beads were diluted as a premixed combination (10 µl/well) and incubated overnight at 4 °C on an orbital plate mixer with plasma (15 µl) and assay buffer (135 µl). For detection, beads were washed using a ring magnet plate washer before adding 25 µl of combined biotinylated detection antibodies and incubating for 2 h at room temperature on an orbital plate mixer.
All experiments were conducted according to the Animals (Scientific Procedures) Act 1986, UK, and approved by the UK Home Office. Clearance rates of proET-1 peptides and blood pressure effects of ELDP were determined in male Wistar rats (Charles River) anaesthetised with sodium thiopentone (120 mg/kg i.p.). Peptides were administered i.v. via a polyethylene catheter in the left femoral vein. Blood samples (0.5 ml) were collected from a catheter in the left carotid artery into chilled 1.5 ml microcentrifuge tubes containing 50 U/5 µl of heparin. Samples were centrifuged at 12,000 rpm for 2 min at 4 °C. Plasma (50 µl aliquots) samples were stored at −80 °C for subsequent analyses. Blood pressure and heart rate were recorded from the left carotid artery via a polyethylene catheter using Labchart 7.1 (AD Instruments Ltd).

[4] = cited from earlier work
Text: The endothelin-like domain sequence is highly conserved with the first four Cys residues having identical spacing to ET-1 (Fig. 6)[18], [19]. There is also considerable sequence homology adjacent to the endothelin-like domain, which has been retained throughout mammalian evolution, such that human ppET-1[107–131] has 92% sequence identity with mouse ELDP and 88% with platypus over this sequence. […] However, choice of test conditions and pepti ...

[5] = ET-1; cited from earlier work
Text: After intravenous injection NT-proET-1 was rapidly eliminated from the circulation (t½ < 20 s). Such rapid clearance indicates uptake or metabolism. ET-1 also has a short t½ (30–60 s)[42], [43], which is due primarily to clearance by endothelial ETB receptors in the pulmonary vasculature, [45], and to a lesser extent degradation by neutral endopeptidase 24.11, particularly in post capillary veins, [47]. In the absence of receptor-mediated clearance, the high disappearance rate of NT-proET-1 is likely due to peptidase activity in the circulation, particularly in the pulmonary circulatio ...

[6] = 1 mM phosphoramidon, 4 experiments
[7] = 1 nmol/kg i.v. bolus, plasma sampled 0.5–40 min, two-phase clearance

## CC(C)C[C@H](NP(=O)(O)O[C@@H]1O[C@@H](C)[C@H](O)[C@@H](O)[C@H]1O)C(=O)N[C@@H](Cc1c[nH]c2ccccc12)C(=O)O [phosphoramidon]
[1]; [6]
  ET-1 synthesis: suppressed
  proET-1 peptide production (NT-proET-1, ELDP, CT-proET-1): no effect
[1]; 1 mM phosphoramidon, confluent human aortic endothelial cells, mean ± SD from 4 experiments
  increase in big ET-1 compared to basal: 14.9 ± 2.8 fold

## SSEEHLRQTRSETMRNSVKSSFHDPKLKGKPSRERYVTHNRAHW [CT-proET-1]
[2]
  elution position on RP-HPLC (fraction number): 28 fraction
[3]; [7]
  estimated t½, phase 1: 0.7 min
  estimated t½, phase 2: 7.3 min
[3]
  plasma level at 30 s as % of administered peptide, relative to estimates for dilution in circulating blood: 34–51%
  level at time molar at 0.5 min: 11.7 ± 0.64 nM

## APETAVLGAELSAVGENGGEKPTPSPPWRLRRS [NT-proET-1]
[3]; 1 nmol/kg i.v. bolus
  time to almost complete clearance from the circulation: < 5 min
[3]; 1 nmol/kg i.v. bolus, plasma
  estimated initial t½: < 20 s
[3]
  plasma level at 30 s as % of administered peptide, relative to estimates for dilution in circulating blood: ≈ 1%
  level at time molar at 0.5 min: 0.29 ± 0.02 nM

## ppET-1[110–130]: preproendothelin [110–130] fragment tested in an earlier study (QCASQKDKKCWNFCQAGKELR; UniProt P05305 110-130, looked up, fragment)
[4]
  cardiovascular effects: failed to show any cardiovascular effects

## Endothelin-1 [ET-1]
[5]
  t½ in the circulation: 30 to 60 s

## Apple procyanidin pentamer
[1]; apple procyanidin pentamer 2.5 or 5 µg/ml, grape seed extract 5 µg/ml, TGFß 1 ng/ml, % basal release, 4 experiments
  synthesis/secretion of all peptides (ET-1, big ET-1 and proET-1 peptides): reduced

## TNFα
[1]; TNFα 10 ng/ml, 4 experiments
  ET-1 and ELDP in conditioned media: did not change
  big ET-1 concentrations: increased
  levels of NT-proET-1 and CT-proET-1 in conditioned media: significantly increased
